# From patent US6894046B2, “IL-5 inhibiting 6-azauracil derivatives” (Janssen Pharmaceutica N.V., priority 1998, dated 2005)
# Test system: IL-5 production in human blood
# Assay: In vitro inhibition of IL-5 production in human blood (phytohemagglutinin-stimulated whole blood, ELISA)
# Format: cell-based
# Settings: test dose 1×10^−6 M, phytohemagglutinin 2 μg/ml, 48 hours
# Description: EXAMPLE C.1: IN VITRO INHIBITION OF IL-5 PRODUCTION IN HUMAN BLOOD
# Peripheral blood from healthy male donors was drawn into heparinized syringes (12.5 U heparin/ml). Blood samples were three-fold diluted in RMPI 1640 medium (Life Technologies, Belgium) supplemented with 2 mM L-glutamine, 100 U/ml penicillin and 100 μg/ml streptomycin, and 300 μl fractions were distributed in 24-well multidisc plates. Blood samples were preincubated (60 minutes at 37° C.) in a humidified 6% CO2-atmosphere with 100 μl of drug solvent (final concentration 0.02% dimethylsulfoxide in RPMI 1640) or with 100 μl of an appropriate dose of test compound before being stimulated by the addition of 100 μl of phytohemagglutinin HA17 (Murex, UK) at a final concentration of 2 μg/ml. After 48 hours, cell-free supernatant fluids were collected by centrifugation and stored at −70° C. until tested for the presence of IL-5.
# IL-5 measurements were conducted as described in Van Wauwe et al. (1996, Inflamm Res, 45, 357-363) on page 358 using ELISA.
# Table 6 lists the percentage inhibition of IL-5 production (column “% inh”) at a test dose of 1×10^−6 M, or in case the percentage inhibition is marked with an “*” 1×10^−5 M, for the compounds of the present invention.
row,Structure (SMILES),% inh. (percentage inhibition of IL-5 production) [%]
1,CC(C)(C)OC(=O)c1sc(C(C)(C)c2c(Cl)cc(-n3ncc(=O)[nH]c3=O)cc2Cl)nc1-c1ccccc1 [Compound 116],89
2,Cc1sc(C(C)(C)c2c(Cl)cc(-n3ncc(=O)[nH]c3=O)cc2Cl)nc1-c1ccccc1F [Compound 15],81
3,Cc1ccsc1-c1csc(C(C)(C)c2c(Cl)cc(-n3ncc(=O)[nH]c3=O)cc2Cl)n1 [Compound 75],91
4,CC(C)(c1nc(-c2ccccc2)c(CCc2ccccc2)s1)c1c(Cl)cc(-n2ncc(=O)[nH]c2=O)cc1Cl [Compound 45],85
5,CC(C)(c1nc(-c2ccccc2)c(-c2cccc([N+](=O)[O-])c2)s1)c1c(Cl)cc(-n2ncc(=O)[nH]c2=O)cc1Cl [Compound 49],95
6,"CC(C)(c1nc(-c2ccccc2)c(-c2cccc(OS(N)(=O)=O)c2)s1)c1c(Cl)cc(-n2ncc(=O)[nH]c2=O)cc1Cl [Compound 66, 3-[2-[1-[2,6-dichloro-4-(4,5-dihydro-3,5-dioxo-1,2,4-triazin-2(3H)-yl)phenyl]-1-methylethyl]-4-phenyl-5-thiazolyl]phenylsulfamate (ester)]",53
7,Cc1sc(C(C)(C)c2c(Cl)cc(-n3ncc(=O)[nH]c3=O)cc2Cl)nc1-c1ccccc1Cl [Compound 27],77
8,CC(C)(c1nc(-c2ccc(Br)cc2)cs1)c1c(Cl)cc(-n2ncc(=O)[nH]c2=O)cc1Cl [Compound 12],70
9,Cc1ccccc1-c1nc(C(C)(C)c2c(Cl)cc(-n3ncc(=O)[nH]c3=O)cc2Cl)sc1-c1ccccc1 [Compound 38],93
10,Cc1c(F)cccc1-c1nc(C(C)(C)c2c(Cl)cc(-n3ncc(=O)[nH]c3=O)cc2Cl)no1 [Compound 144],90
11,CC(C)(c1nc(-c2ccc(Cl)s2)cs1)c1c(Cl)cc(-n2ncc(=O)[nH]c2=O)cc1Cl [Compound 73],84
12,CC(C)(c1noc(-c2ccccc2Cl)n1)c1c(Cl)cc(-n2ncc(=O)[nH]c2=O)cc1Cl [Compound 89],84
13,CCc1sc(C(C)(C)c2c(Cl)cc(-n3ncc(=O)[nH]c3=O)cc2Cl)nc1-c1ccc(-c2ccccc2)cc1 [Compound 48],58
14,CC(C)(c1nc(-c2ccc([N+](=O)[O-])s2)cs1)c1c(Cl)cc(-n2ncc(=O)[nH]c2=O)cc1Cl [Compound 74],76
15,CC(C)(c1nc(-c2ccccc2Cl)cs1)c1c(Cl)cc(-n2ncc(=O)[nH]c2=O)cc1Cl [Compound 4],94
16,CC(C)(c1nc(-c2ccccc2Cl)c(C=O)s1)c1c(Cl)cc(-n2ncc(=O)[nH]c2=O)cc1Cl [Compound 46],44
17,CC(C)(c1noc(-c2cccs2)n1)c1c(Cl)cc(-n2ncc(=O)[nH]c2=O)cc1Cl [Compound 92],80
18,CC(C)(c1nc(-c2ccccc2)c(CC(=O)N2CCC(O)CC2)s1)c1c(Cl)cc(-n2ncc(=O)[nH]c2=O)cc1Cl [Compound 22],18
19,CC(C)(c1nc(-c2ccc(C#N)s2)cs1)c1c(Cl)cc(-n2ncc(=O)[nH]c2=O)cc1Cl [Compound 78],79

# Same assay, conditions: test dose 1×10^−6 M, phytohemagglutinin 2 μg/ml, 48 hours, read-out: % inh. (percentage inhibition of IL-5 production)
row,Structure (SMILES),inhibition at 1 µM [%]
1,"CC(C)(c1nc(-c2ccccc2)c(Cc2ccccc2)s1)c1c(Cl)cc(-n2ncc(=O)[nH]c2=O)cc1Cl [Compound 43, 2-[3,5-dichloro-4-[1-methyl-1-[4-phenyl-5-(phenylmethyl)-2-thiazolyl]ethyl]phenyl]-1,2,4-triazine-3,5(2H,4H)-dione]",86
2,"CC(=O)Nc1cccc(-c2sc(C(C)(C)c3c(Cl)cc(-n4ncc(=O)[nH]c4=O)cc3Cl)nc2-c2ccccc2)c1 [Compound 51, N-[3-[2-[1-[2,6-dichloro-4-(4,5-dihydro-3,5-dioxo-1,2,4-triazin-2(3H)-yl)phenyl]-1-methylethyl]4-phenyl-5-thiazolyl]phenyl]-acetamide]",73
